The results in this text go back to patent US20030211995A1, “Methods and formulations for eradicating or alleviating staphylococcal nasal colonization using lysostaphin” (priority 2001, published 2003).

Read-outs that look alike come from different tables or passages of the source. Marks after values point to notes of the source that are not given here. Where a SMILES comes first, the peptide text is derived from it.

Assay [1] deals with S. aureus MBT 5040. Briefly: Cotton rat model, cream instilled before instillation of bacteria (blocking of colonization). The assay is classed as in vivo. The settings on record: administered in a viscous formulation such as a cream. On the procedure:
To determine how long lysostaphin, when administered in a cream formulation, remains active in the nares, a single dose of 2% lysostaphin cream was instilled in cotton rat noses 48 hours, 24 hours, and 8 hours prior to instillation of 10^9 CFU of S. aureus MBT 5040. Control animals received control cream, without lysostaphin, 8 hours prior to receiving bacteria. Six days after introduction of the bacteria, each of the 5 animals per experimental group were sacrificed and the noses checked for S. aureus colonization.

Assay [2] relates to S. aureus strain SA 3865 (mupirocin resistant). Briefly: Cotton rat nasal colonization model, single dose of cream. The assay is classed as in vivo. The settings on record: Table 6d; single dose of 0.5% lysostaphin cream.
Assay [3] deals with S. aureus strain MRSA 12/12. The assay is described as above. The assay is classed as in vivo. The settings on record: Table 6d; single dose of 0.5% lysostaphin cream. The method, then:
To further explore the relationship between lysostaphin-resistance and nasal colonization, treatment of S. aureus strain MRSA 12/12 nasal colonization with a single dose of 0.5% lysostaphin cream was also examined. MRSA 12/12 colonized the cotton rat nares (Table 6d), and a single treatment of 0.5% lysostaphin cream also eradicated nasal colonization by this strain. Nasal supernatant from treated animals was plated on both TSA/NaCl+nafcillin and TSA/NaCl alone since when MRSA become lysostaphin-resistant they revert to MSSA (17).

For assay [4], the system named is S. aureus. Briefly: Proteinase K neutralization of lysostaphin activity in vitro. The assay is classed as cell-based. The settings on record: 10^5 S. aureus in PBS; lysostaphin 10 mcg and/or 10 mg/ml Proteinase K; 20 minutes at room temperature. The method, then: Lysostaphin (10 mcg) was added to some samples of 10^5 S. aureus in PBS in the presence or absence of 10 mg/ml Proteinase K. The samples were incubated for 20 minutes at room temperatures and then 100 microliter aliquots were plated on blood agar.

Assay [5] concerns S. aureus strain MBT 5040. Briefly: MIC by microtiter dilution assay. In kind it is cell-based.
Description: At the same time, a Columbia agar plate containing 2% NaCl (CSA) was inoculated with S. aureus strain MBT 5040 from a frozen stock. […] The MIC of a drug for a particular bacterial strain is the minimum concentration of the drug that inhibits normal growth of that particular bacterial strain.
Any detected S. aureus after lysostaphin treatment were tested for lysostaphin resistance by microtiter dilution assay. […] Plates were prepared by making lysostaphin dilutions in cation-adjusted Mueller Hinton broth+2%NaCl and 0.1%BSA (CAMHB+). The CAMHB+2% NaCl was made first, autoclaved, and then sterile 30% BSA was added to equal 0.1% BSA concentration. BSA prevents nonspecific lysostaphin interaction with plastic. The final volume of CAMHB+ in each well was 50 μl. Dilutions were 1:2, prepared by mixing 50 μl of the previous dilution into 50 μl of fresh media. The final row on the plate was left with no lysostaphin added as a control for growth. […] Overnight cultures were diluted ˜1:1000, as determined empirically, to yield a final concentration of 5×10^5/ml by measuring the optical density at 650 nm (OD650). […] The minimal inhibitory concentration (MIC) of lysostaphin, the lowest concentration of lysostaphin that prevents normal growth, was determined by reading the OD650 on a microplate reader.
Plates were incubated at room temperature for 6 to 18 hours. The OD650 was determined.
The subject of assay [6] is S. aureus (ATCC 49521). Briefly: Lysostaphin MIC assay, outgrowth of lysostaphin resistance with or without sub-MIC bacitracin or nisin. The assay is classed as cell-based. The settings on record: for growth in lysostaphin MIC assay: replicate rows. The arrangement: key to growth in lysostaphin MIC assay: G = Normal growth; Blank = no growth; R = resistance outgrowth as determined by addition of 20 μg/ml lysostaphin for 4 hrs following initial overnight incubation. The method, then:
When lysostaphin is tested in a standard “Minimum Inhibitory Concentration” (MIC) assay, outgrowth of S. aureus is sometime observed above the MIC for almost all strains of S. aureus examined. On further testing, these outgrowth wells are found to contain lysostaphin-resistant S. aureus with MICs many dilutions above the MIC of the parental strain. […] This Example illustrates that the addition of the antibacterial agent bacitracin, eliminates lysostaphin-resistant outgrowths in vitro, and may likewise reduce or eliminate resistant outgrowths in vivo. […] Of course, nasal formulations comprising antibacterial agents above the MIC for that particular agent are also within the scope of this invention.
In this experiment a NCCLS standard MIC is conducted with the modification of adding 0.1% BSA to the assay. Rows 1-4 are lysostaphin MICs conducted in the absence of bacitracin while rows 5-8 are lysostaphin MICs conducted in the presence of bacitracin (5 μg/ml).
(§1) Lysostaphin MIC assays were conducted in the presence or absence of subinhibitory concentrations (four-fold dilution below MIC) of either bacitracin or nisin to determine if either substance prevented the outgrowth of lysostaphin resistance in these assays. This is as previously described in Example 14, above.

The test system of assay [7] is Type 8 S. aureus (MSSA). Briefly: Cotton rat nasal colonization model, single dose of cream. The assay is classed as in vivo. The settings on record: Table 6d; single dose of 0.5% lysostaphin cream. The method, then: (§2) On the day of instillation, S. aureus MBT 5040 was harvested from the CSA plate by scraping colonies into sterile. PBS (1 ml/animal to be instilled) until the percent transmittance of the sample was approximately 10% at […] in a 10 mm path length. The bacteria were pelleted by centrifugation and then resuspended in 10 μl/animal of sterile PBS. Cotton rats were sedated with 200 μl of Ketamine (25 mg/kg), Rompun (2.5 mg/kg), and Acepromazine (2.5 mg/kg) delivered intramuscularly. Ten microliters, approximately 10^9 S. aureus CFUs per animal, of MBT 5040 in PBS was instilled in the nares using a micropipette without touching the nares. Specifically, a drop of bacterial inoculum was placed on the nostril with a micropipettor, without touching the nose. The animal's regular process of respiration then inhaled the drop into the nares. After introduction of the MBT 5040 bacteria, the cotton rats were returned to normal water, without nafcillin. Unless otherwise indicated, this method was consistently used to instill S. aureus in the nares for all examples discussed below.
(§3) Ten cotton rats were nasally instilled with MBT 5040 S. aureus. On day 4 and day 5 post-instillation, the 5 animals were treated with a 0.5% lysostaphin cream and 5 animals were treated with a cream without lysostaphin added. Cream formulations were delivered into the nares of anaesthetized cotton rats by syringe through an Angiocath™ 22 GA flexible catheter (Becton Dickinson). The catheter was inserted approximately 3 mm into each of the nares and then drawn back as the cream was delivered. The noses of the cotton rats were massaged well following cream delivery to ensure good dispersal of cream. The dose of cream delivered to the nares was approximately 30-50 μl. Due to the cream's highly viscous nature, it was difficult to precisely gauge to volume of creams delivered to the nares. Unless otherwise indicated, this method of cream delivery into the nares was used throughout the examples below.
(§4) To determine the efficacy of a single dose of 0.5% lysostaphin cream in eradicating S. aureus nasal colonization, cotton rats were instilled with either MBT 5040 (MRSA), Type 5 S. aureus (sensitive to methicillin; MSSA), or Type 8 S. aureus (MSSA). Half of the animals in each group were treated once on day 5 post-instillation with negative control cream and other half of the animals were treated on the same day with 0.5% lysostaphin cream.

The subject of assay [8] is Type 5 S. aureus (MSSA). Described as above. The settings on record: Table 6d; single dose of 0.5% lysostaphin cream. In kind it is in vivo. The method, then: as §2, §3, §4
In assay [9] the test system is SA8 Sam. Briefly: Lysostaphin MIC assay, outgrowth of lysostaphin resistance with or without sub-MIC bacitracin or nisin. The assay is classed as cell-based, S. aureus. The settings on record: nisin or bacitracin at four-fold dilution below MIC. On the procedure: as §1
The test system of assay [10] is SA5 USU. Described as above. The assay is classed as cell-based, S. aureus. The settings on record: nisin or bacitracin at four-fold dilution below MIC. The method, then: as §1
The subject of assay [11] is SA5 Sam. The description is as above. The assay is classed as cell-based, S. aureus. The settings on record: nisin or bacitracin at four-fold dilution below MIC. The method, then:
as §1

The test system of assay [12] is MBT 5040 LysoR. Briefly: MIC of lysostaphin for lysostaphin-resistant variant. The assay is classed as cell-based, S. aureus. The settings on record: variant isolated in vitro.
Description: Any detected S. aureus after lysostaphin treatment were tested for lysostaphin resistance by microtiter dilution assay. Lysostaphin was resuspended in sterile PBS, aliquotted and stored at −80° C. […] Once thawed, an aliquot of lysostaphin was stored at 4° C. and used for no more than two weeks. Plates were prepared by making lysostaphin dilutions in cation-adjusted Mueller Hinton broth+2%NaCl and 0.1%BSA (CAMHB+). The CAMHB+2% NaCl was made first, autoclaved, and then sterile 30% BSA was added to equal 0.1% BSA concentration. […] The final volume of CAMHB+ in each well was 50 μl. Dilutions were 1:2, prepared by mixing 50 μl of the previous dilution into 50 μl of fresh media. The final row on the plate was left with no lysostaphin added as a control for growth. A starting concentration of 1 μg/ml lysostaphin was used as the stock concentration. […] Overnight cultures were diluted ˜1:1000, as determined empirically, to yield a final concentration of 5×10^5/ml by measuring the optical density at 650 nm (OD650). […] The minimal inhibitory concentration (MIC) of lysostaphin, the lowest concentration of lysostaphin that prevents normal growth, was determined by reading the OD650 on a microplate reader.
Plates were incubated at room temperature for 6 to 18 hours. The OD650 was determined. […]

Take “Lysostaphin: antibacterial endopeptidase cleaving pentaglycine bridges of staphylococcal cell walls; Ambicin L (recombinant lysostaphin) used in Examples 1-10”: in [1], the “time lysostaphin remains active in the nares after administration” value is “at least 48 hours”. The “Animals Colonized/Animals Tested” value in [2], in assay [3], in assay [7] and in [8] was 0/5 each time. The “Mean Colonization” value in assay [2], in assay [3], in [7] and in assay [8] was 0 each time. For the same compound, in assay [4], the “CFUs Recovered” value was found to be 0 CFUs. In addition, the MIC in assay [5] is 0.064 µg/mL; in assay [12], over 32 µg/mL. Besides, the “growth in lysostaphin MIC assay” value in [6] (lysostaphin 0.25 ng/ml, no bacitracin) was “G”; in [6] (lysostaphin 0.5 ng/ml, no bacitracin), “G”; in [6] (lysostaphin 1 ng/ml, no bacitracin) it was “G”; in assay [6] (lysostaphin 2 ng/ml, no bacitracin), “R”; in assay [6] (lysostaphin 4 ng/ml, no bacitracin) it was “R^3 and R^”; in assay [6] (lysostaphin 8 ng/ml, no bacitracin), “R”. Besides, the “growth in lysostaphin MIC assay” value in assay [6] (lysostaphin 16 ng/ml, no bacitracin) was “R”; in [6] (lysostaphin 32 ng/ml, no bacitracin), “R”; in assay [6] (lysostaphin 125 ng/ml, no bacitracin), “R”; in assay [6] (lysostaphin 250 ng/ml, no bacitracin), “R”. For the same compound, the “Percentage of wells above lysostaphin MIC that have outgrowth of lysostaphin-resistance” value in assay [6] (nisin or bacitracin at four-fold dilution below MIC) was 31^a %; in [9], 58%; in [10] it was 14%; in assay [11], 18%.

Take `CC[C@H](C)[C@H](N)C1=N[C@H](C(=O)N[C@@H](CC(C)C)C(=O)N[C@H](CCC(=O)O)C(=O)N[C@H](C(=O)N[C@H]2CCCCNC(=O)[C@H](CC(N)=O)NC(=O)[C@@H](CC(=O)O)NC(=O)[C@H](Cc3cnc[nH]3)NC(=O)[C@@H](Cc3ccccc3)NC(=O)[C@H]([C@@H](C)CC)NC(=O)[C@@H](CCCN)NC2=O)[C@@H](C)CC)CS1` [Bacitracin, bacitracin, reference compound] (HELM PEPTIDE1{[CC[C@H](C)[C@H](N)C1=N[C@H](C(=O)[*:2])CS1].L.[dE].I.K.[NCCC[C@@H](N[*:1])C(=O)[*:2]].I.[dF].H.[dD].N}$PEPTIDE1,PEPTIDE1,5:R3-11:R2$$$V2.0): the “growth in lysostaphin MIC assay” value in assay [6] (lysostaphin 0 ng/ml, bacitracin 5 μg/ml) was “G^”.

Turning to `COc1cccc(OC)c1C(=O)N[C@@H]1C(=O)N2[C@@H]1SC(C)(C)[C@@H]2C(=O)O` [methicillin, reference compound], in assay [5] (Staphylococcus aureus, MBT5040, read-out: MIC), the minimal inhibitory concentration (MIC) is over 36 µg/mL.
